Assay results as given in patent US20260285850A1, “SUBSTITUTED OXAZOLIDINONES AND IMIDAZOLINONES AS HERBICIDES” (FMC CORPORATION, priority 2023, published 2026).

Legend:
Type in all cases: in vivo
[1] = test system: ragweed (common ragweed, Ambrosia artemisiifolia); experiment: Test A postemergence application, visual injury rating 0-100; settings: Postemergence
Source text: (§1) Seeds of plant species selected from barnyardgrass (Echinochloa crus-galli), blackgrass (Alopecurus myosuroides), corn (Zea mays), foxtail, giant (giant foxtail, Setaria faberi), green foxtail (Setaria viridis), goosegrass (Eleusine indica), kochia (Bassia scoparia), oat, wild (wild oat, Avena fatua), palmer (palmer amaranth, palmer pigweed, Amaranthus palmeri), ragweed (common ragweed, Ambrosia artemisiifolia), ryegrass, Italian (italian ryegrass, Lolium multiflorum), soybean (Glycine max) and wheat (Triticum aestivum) were planted into a blend of loam soil and sand and treated preemergence with a directed soil spray using test chemicals formulated in a non-phytotoxic solvent mixture which included a surfactant.
(§2) At the same time, plants selected from these crops and weed species and also galium (catchweed bedstraw, Galium aparine) and horseweed (Erigeron canadensis) were planted in pots containing the same blend of loam soil and sand and treated with postemergence applications of test chemicals formulated in the same manner. Plants ranged in height from 2 to 10 cm and were in the one- to two-leaf stage for the postemergence treatment. Treated plants and untreated controls were maintained in a greenhouse for 10 days, after which time all treated plants were compared to untreated controls and visually evaluated for injury. Plant response ratings, summarized in Table A, are based on a 0 to 100 scale where 0 is no effect and 100 is complete control. A dash (-) response means no test result.

[2] = test system: oat, wild (wild oat, Avena fatua); experiment: as above; settings: Postemergence
Source text: as §1, §2

[3] = test system: barnyardgrass (Echinochloa crus-galli); experiment: as above; settings: Postemergence
Source text: as §1, §2

[4] = test system: palmer (palmer amaranth, palmer pigweed, Amaranthus palmeri); experiment: as above; settings: Postemergence
Source text: as §1, §2

[5] = test system: galium (catchweed bedstraw, Galium aparine); experiment: as above; settings: Postemergence
Source text: as §1, §2

soybean (Glycine max) [6] = experiment: as above; settings: Postemergence
Source text: as §1, §2

[7] = test system: horseweed (Erigeron canadensis); experiment: as above; settings: Postemergence
Source text: as §1, §2

[8] = test system: ryegrass, Italian (italian ryegrass, Lolium multiflorum); experiment: as above; settings: Postemergence
Source text: as §1, §2

corn (Zea mays) [9] = experiment: as above; settings: Postemergence
Source text: as §1, §2

[10] = test system: blackgrass (Alopecurus myosuroides); experiment: as above; settings: Postemergence
Source text: as §1, §2

kochia (Bassia scoparia) [11] = experiment: as above; settings: Postemergence
Source text: as §1, §2

[12] = test system: wheat (Triticum aestivum); experiment: as above; settings: Postemergence
Source text: as §1, §2

[13] = test system: ragweed (common ragweed, Ambrosia artemisiifolia); experiment: Test A preemergence soil spray, visual injury rating 0-100; settings: 10 days; for Ragweed plant response rating (0 to 100 scale): 125 g ai/ha
Source text: as §1, §2

[14] = test system: oat, wild (wild oat, Avena fatua); experiment: as above; settings: 10 days; for Oat, Wild plant response rating (0 to 100 scale): 125 g ai/ha
Source text: as §1, §2

[15] = test system: barnyardgrass (Echinochloa crus-galli); experiment: as above; settings: 10 days; for Barnyardgrass plant response rating (0 to 100 scale): 125 g ai/ha
Source text: as §1, §2

[16] = test system: palmer (palmer amaranth, palmer pigweed, Amaranthus palmeri); experiment: as above; settings: 10 days; for Amaranth, Palmer plant response rating (0 to 100 scale): 125 g ai/ha
Source text: as §1, §2

soybean (Glycine max) [17] = experiment: as above; settings: 10 days; for Soybean plant response rating (0 to 100 scale): 125 g ai/ha
Source text: as §1, §2

[18] = test system: ryegrass, Italian (italian ryegrass, Lolium multiflorum); experiment: as above; settings: 10 days; for Ryegrass, Italian plant response rating (0 to 100 scale): 125 g ai/ha
Source text: as §1, §2

corn (Zea mays) [19] = experiment: as above; settings: 10 days; for Corn plant response rating (0 to 100 scale): 125 g ai/ha
Source text: as §1, §2

[20] = test system: blackgrass (Alopecurus myosuroides); experiment: as above; settings: 10 days; for Blackgrass plant response rating (0 to 100 scale): 125 g ai/ha
Source text: as §1, §2

kochia (Bassia scoparia) [21] = experiment: as above; settings: 10 days; for Kochia plant response rating (0 to 100 scale): 125 g ai/ha
Source text: as §1, §2

[22] = test system: wheat (Triticum aestivum); experiment: as above; settings: 10 days; for Wheat plant response rating (0 to 100 scale): 125 g ai/ha
Source text: as §1, §2

[23] = 31 g ai/ha, greenhouse 10 days, 0 no effect, 100 complete control
[24] = 125 g ai/ha, 10 days, 0 is no effect, 100 is complete control
[25] = 31 g ai/ha, 0 = no effect, 100 = complete control
[26] = 0 = no effect, 100 = complete control

## CC1(C(=O)NC2CC=C(C(=O)NS(=O)(=O)C3CC3)C2)CN(c2cc(Cl)cc(Cl)c2)C(=O)O1 (stereo not shown) [Compound 75]
[1]; [23]
  Ragweed plant response rating (0 to 100 scale): 0
[1]; [24]
  Ragweed plant response rating (0 to 100 scale): 60
[2]; [23]
  Oat, Wild plant response rating (0 to 100 scale): 10
[2]; [24]
  Oat, Wild plant response rating (0 to 100 scale): 90
[3]; [23]
  Barnyardgrass plant response rating (0 to 100 scale): 80
[3]; [24]
  Barnyardgrass plant response rating (0 to 100 scale): 90
[4]; [23]
  Amaranth, Palmer / Pigweed, Palmer plant response rating (0 to 100 scale): 70
[4]; [24]
  Amaranth, Palmer / Pigweed, Palmer plant response rating (0 to 100 scale): 90
[5]; [23]
  Galium plant response rating (0 to 100 scale): 40
[5]; [24]
  Galium plant response rating (0 to 100 scale): 80
Soybean (Glycine max) [6]; [23]
  Soybean plant response rating (0 to 100 scale): 20
Soybean (Glycine max) [6]; [24]
  Soybean plant response rating (0 to 100 scale): 50
[7]; [23]
  Horseweed plant response rating (0 to 100 scale): 40
[7]; [24]
  Horseweed plant response rating (0 to 100 scale): 70
[8]; [23]
  Ryegrass, Italian plant response rating (0 to 100 scale): 50
[8]; [24]
  Ryegrass, Italian plant response rating (0 to 100 scale): 70
Corn (Zea mays) [9]; [23]
  Corn plant response rating (0 to 100 scale): 70
Corn (Zea mays) [9]; [24]
  Corn plant response rating (0 to 100 scale): 90
[10]; [23]
  Blackgrass plant response rating (0 to 100 scale): 0
[10]; [24]
  Blackgrass plant response rating (0 to 100 scale): 80
Kochia (Bassia scoparia) [11]; [23]
  Kochia plant response rating (0 to 100 scale): 80
Kochia (Bassia scoparia) [11]; [24]
  Kochia plant response rating (0 to 100 scale): 80
[12]; [23]
  Wheat plant response rating (0 to 100 scale): 70
[12]; [24]
  Wheat plant response rating (0 to 100 scale): 80
[13]; [25]
  Ragweed plant response rating (0-100): 10
[13]; [26]
  Ragweed plant response rating (0 to 100 scale): 0
[14]; [25]
  Oat, Wild plant response rating (0-100): 0
[14]; [26]
  Oat, Wild plant response rating (0 to 100 scale): 0
[15]; [25]
  Barnyardgrass plant response rating (0-100): 0
[15]; [26]
  Barnyardgrass plant response rating (0 to 100 scale): 80
[16]; [25]
  Amaranth, Palmer plant response rating (0-100): 50
[16]; [26]
  Amaranth, Palmer plant response rating (0 to 100 scale): 90
Soybean (Glycine max) [17]; [25]
  Soybean plant response rating (0-100): 30
Soybean (Glycine max) [17]; [26]
  Soybean plant response rating (0 to 100 scale): 10
[18]; [25]
  Ryegrass, Italian plant response rating (0-100): 10
[18]; [26]
  Ryegrass, Italian plant response rating (0 to 100 scale): 70
Corn (Zea mays) [19]; [25]
  Corn plant response rating (0-100): 0
Corn (Zea mays) [19]; [26]
  Corn plant response rating (0 to 100 scale): 0
[20]; [25]
  Blackgrass plant response rating (0-100): 20
[20]; [26]
  Blackgrass plant response rating (0 to 100 scale): 40
Kochia (Bassia scoparia) [21]; [25]
  Kochia plant response rating (0-100): 50
Kochia (Bassia scoparia) [21]; [26]
  Kochia plant response rating (0 to 100 scale): 90
[22]; [25]
  Wheat plant response rating (0-100): 0
[22]; [26]
  Wheat plant response rating (0 to 100 scale): 40

## CCS(=O)(=O)NC(=O)C1C=CC(NC(=O)C2(C)CN(c3cc(Cl)cc(Cl)c3)C(=O)O2)C1 (stereo not shown) [Compound 83]
[1]; [23]
  Ragweed plant response rating (0 to 100 scale): 60
[1]; [24]
  Ragweed plant response rating (0 to 100 scale): 80
[2]; [23]
  Oat, Wild plant response rating (0 to 100 scale): 80
[2]; [24]
  Oat, Wild plant response rating (0 to 100 scale): 90
[3]; [23]
  Barnyardgrass plant response rating (0 to 100 scale): 90
[3]; [24]
  Barnyardgrass plant response rating (0 to 100 scale): 90
[4]; [23]
  Amaranth, Palmer / Pigweed, Palmer plant response rating (0 to 100 scale): 80
[4]; [24]
  Amaranth, Palmer / Pigweed, Palmer plant response rating (0 to 100 scale): 90
[5]; [23]
  Galium plant response rating (0 to 100 scale): 80
[5]; [24]
  Galium plant response rating (0 to 100 scale): 80
Soybean (Glycine max) [6]; [23]
  Soybean plant response rating (0 to 100 scale): 20
Soybean (Glycine max) [6]; [24]
  Soybean plant response rating (0 to 100 scale): 60
[7]; [23]
  Horseweed plant response rating (0 to 100 scale): 20
[7]; [24]
  Horseweed plant response rating (0 to 100 scale): 70
[8]; [23]
  Ryegrass, Italian plant response rating (0 to 100 scale): 60
[8]; [24]
  Ryegrass, Italian plant response rating (0 to 100 scale): 70
Corn (Zea mays) [9]; [23]
  Corn plant response rating (0 to 100 scale): 20
Corn (Zea mays) [9]; [24]
  Corn plant response rating (0 to 100 scale): 90
[10]; [23]
  Blackgrass plant response rating (0 to 100 scale): 60
[10]; [24]
  Blackgrass plant response rating (0 to 100 scale): 90
Kochia (Bassia scoparia) [11]; [23]
  Kochia plant response rating (0 to 100 scale): 70
Kochia (Bassia scoparia) [11]; [24]
  Kochia plant response rating (0 to 100 scale): 70
[12]; [23]
  Wheat plant response rating (0 to 100 scale): 90
[12]; [24]
  Wheat plant response rating (0 to 100 scale): 90
[13]; 31 g ai/ha, 0 to 100 scale
  Ragweed plant response rating: 0
[13]; [26]
  Ragweed plant response rating (0 to 100 scale): 20
[14]; 31 g ai/ha, 0 to 100 scale
  Oat, Wild plant response rating: 0
[14]; [26]
  Oat, Wild plant response rating (0 to 100 scale): 60
[15]; 31 g ai/ha, 0 to 100 scale
  Barnyardgrass plant response rating: 30
[15]; [26]
  Barnyardgrass plant response rating (0 to 100 scale): 70
[16]; 31 g ai/ha, 0 to 100 scale
  Amaranth, Palmer (Pigweed, Palmer) plant response rating: 70
[16]; [26]
  Amaranth, Palmer plant response rating (0 to 100 scale): 100
Soybean (Glycine max) [17]; 31 g ai/ha, 0 to 100 scale
  Soybean plant response rating: 40
Soybean (Glycine max) [17]; [26]
  Soybean plant response rating (0 to 100 scale): 10
[18]; 31 g ai/ha, 0 to 100 scale
  Ryegrass, Italian plant response rating: 60
[18]; [26]
  Ryegrass, Italian plant response rating (0 to 100 scale): 80
Corn (Zea mays) [19]; 31 g ai/ha, 0 to 100 scale
  Corn plant response rating: 0
Corn (Zea mays) [19]; [26]
  Corn plant response rating (0 to 100 scale): 60
[20]; 31 g ai/ha, 0 to 100 scale
  Blackgrass plant response rating: 0
[20]; [26]
  Blackgrass plant response rating (0 to 100 scale): 40
Kochia (Bassia scoparia) [21]; 31 g ai/ha, 0 to 100 scale
  Kochia plant response rating: 0
Kochia (Bassia scoparia) [21]; [26]
  Kochia plant response rating (0 to 100 scale): 90
[22]; 31 g ai/ha, 0 to 100 scale
  Wheat plant response rating: 0
[22]; [26]
  Wheat plant response rating (0 to 100 scale): 60
